# Assay results from patent US20240181125A1, “COMPOSITIONS AND METHODS FOR SCARLESS WOUND HEALING IN DIABETES” (Washington University, priority 2022, published 2024).
# Bridge positions count the residues as written; N and C are the ends. Peptide text beside a SMILES is read from it. * marks the point of attachment. FITC = O=C1OC2(c3ccc(O)cc3Oc3cc(O)ccc32)c2ccc(NC(=S)*)cc21
# Legend:
# HAECs [1] = assay: Cell proliferation (dsDNA) under high glucose and TGFβ1, HAEC; type: cell-based, human; conditions: high glucose, TGFβ1 10 ng/ml, PTβR2I 10 μg/mL; p<0.05
# Method: HDFs, HaCaTs, and HAECs were seeded in 96-well plates at respective densities of 1.5×10^4 cells/mL, 2×10^4 cells/mL, and 2×10^4 cells/mL. High glucose (4.5 g/L) basal medium with 1% P/S was used for the culture. After 24 hours, TGFβ1 (10 ng/ml) or TGFβ1 (10 ng/ml)/PTβR2I (10 μg/mL) was added to the medium. The culture continued for three days. The medium was then replaced by papain solution and incubated at 60° C. for 24 hours. The dsDNA content was tested using a Quant-iT™ PicoGreen dsDNA Assay Kit (Invitrogen).
# TGFβ1/p-Smad2/3 pathway = assay: Immunoblotting/IF of p-Smad2/3 and α-SMA in HDFs; type: cell-based, human
# Method: (§1) For in vitro tests, protein lysates were collected from HDFs. Pre-cooled cell scrapers were used to detach the cells, and the cells were re-suspended in RIPA lysis buffer with the inhibitor cocktail. For in vivo tests, wound skin tissues were washed three times with pre-cooled DPBS, dissected into small pieces, and re-suspended in RIPA lysis buffer containing protease and phosphatase inhibitors. Homogenization was then performed thereafter with an ultrasonic processor (Cole Parmer). After centrifugation at 12,000 g for 20 min, the supernatants were collected, and protein concentrations were measured using a Bradford protein assay kit (Bio-rad).
# (§2) The protein samples were separated by 10% Mini-PROTEAN TGX stain-free precast gels (Bio-rad) and transferred onto an immune-blot PVDF membrane. The blots were washed three times with DPBS containing 0.1% Tween 20 (PBST), blocked with 5% milk powder in PBST buffer for 40 min, and incubated with primary antibodies at specific dilutions overnight at 4° C. The primary antibodies included rabbit GAPDH antibody (1:5000, Cell signaling), rabbit anti-a-smooth muscle actin (α-SMA) antibody (1:2000, Cell signaling), rabbit anti-phospho-Smad2(Ser465/467)/Smad3 (Ser423/425) (1:500, Cell signaling), and rabbit anti-phospho-p38 (1:500, Cell signaling). The membranes were washed three times with PBST and incubated with horseradish peroxidase (HRP)-conjugated secondary antibodies (1:2500). Immunoblots were then washed with PBST and detected with a WesternBright HRP substrate detection kit (Advansta). The ChemiDoc XPS+system (Bio-rad) was used to image the blots.
# HDF = assay: Cytotoxicity of PTβR2I on dermal fibroblasts; type: cell-based, human; set-up: dose or concentration left out as unconfirmed; conditions: 1 to 100
# [2] = test system: THP-1-derived CD86+M1 macrophages; assay: mRNA expression (RT-PCR), M1 macrophages; type: cell-based, human; conditions: high glucose and TGFβ1
# Method: Macrophages were derived from THP-1, a human monocytic cell line (ATCC). THP-1 cells were treated with 100 ng/ml phorbol 12-myristate 13-acetate (PMA, Millipore-Sigma, P1585) for 48 hours, followed by 24 hours in RPMI 1640 medium (ATCC) with 10% FBS and 1% P/S. To induce differentiation into M1 macrophages, the cells were treated with 100 pg/mL lipopolysaccharide (LPS, Millipore-Sigma) and 20 ng/ml interferon-gamma (IFN-γ, Millipore-Sigma) for 48 hours.
# (§3) To determine the mRNA expression of the cells (HDFs, HaCaTs, and HAECs) treated with TGFβ1 (10 ng/ml) or TGFβ1 (10 ng/ml)/PTβR2I (10 μg/mL) under high glucose conditions, RNA was extracted using Trizol (Invitrogen) and reverse transcribed using a cDNA synthesis kit (Applied Biosystems). Gene expression was performed by real-time RT-PCR, using Maxima SYBR Green/Fluorescein Master Mix (Thermofisher) and selected primer pairs, shown in Table 1 below. β-actin served as the housekeeping gene. The ΔΔCt method was used for data analysis.
# HAECs [3] = assay: mRNA expression (RT-PCR), HAECs; type: cell-based, human; conditions: high glucose and TGFβ1
# Method: as §3
# HDFs [4] = assay: mRNA expression (RT-PCR), HDFs; type: cell-based, human; conditions: high glucose and TGFβ1
# Method: as §3
# [5] = In vitro release of peptide from hydrogel; type: physicochemical; conditions: 21-day study, 37° C., DPBS; loadings 10, 20, 50 μg/mL
# Method: To characterize the ECG release properties of the NIPAAm-based hydrogels disclosed herein, the following experiments were conducted. Hydrogel samples were synthesized with varying levels of ECG loading: 10 μg/mL, 20 μg/mL, and 50 μg/mL. The cumulative release of ECG from the hydrogel samples was assessed over a three-week period.
# Wound dressings were fabricated by encapsulating PTβR2I in the hydrogel solution at 4° C. Briefly, PTβR2I solution was mixed with 6 wt. % hydrogel solution to reach final PTβR2I concentrations of 10 μg/mL, 20 μg/mL and 50 μg/mL. The mixtures were stirred at 4° C. for 12 hours. To determine PTβR2I release kinetics, the mixtures were first incubated at 37° C. to gel. After 1 hour, the supernatant was replaced by a release medium (DPBS with 1% P/S). The medium was then collected at pre-determined time points for 21 days, and a fresh release medium was added after each collection. The concentration of the released PTβR2I was determined by measuring the fluorescence intensity and calculating the corresponding concentration using a standard curve. The bioactivity of the released PTβR2I was evaluated by its ability to bind to the TβR2 on the HDFs. […] After 2 hours of incubation, the cells were washed three times with DPBS, and the fluorescence intensity was measured using a microplate reader (excitation/emission=485/535 nm).
# [6] = test system: human aortic endothelial cells (HAEC); assay: Cytotoxicity of PTβR2I on endothelial cells; type: cell-based; set-up: dose or concentration left out as unconfirmed
# HDFs [7] = assay: 2D scratch migration assay, HDF; type: cell-based, human; conditions: high glucose and TGFβ1, 72 hours
# Method: (§4) HDFs, HaCaTs, and HAECs were cultured in 6-well plates using serum-free high glucose (4.5 g/L) basal medium with 1% P/S. After the cells reached confluency, a 200-μL pipet tip was used to scrape the cell monolayer. Then 3 mL of medium containing TGFβ1 (10 ng/ml) or TGFβ1 (10 ng/ml)/PTβR2I (10 μg/mL) was added to the wells. The cells were imaged at predetermined time points using a bright-field microscope. The distances between the scratch walls were measured using ImageJ to calculate the migration ratio
# TGFβ1/p38 pathway = assay: Immunoblotting of p-p38 in HDFs; type: cell-based, human
# Method: as §1, §2
# HAECs [8] = assay: 2D scratch migration assay, HAEC; type: cell-based, human; conditions: high glucose and TGFβ1, 36 hours
# Method: as §4
structure (smiles),measurement,setting,value
"CC(C)C[C@@H]1NC(=O)CNC(=O)[C@@H](NC(=O)[C@@H](N)CCC(=O)O)CSSC[C@@H](C(=O)N[C@@H](CCCCNC(=S)Nc2ccc3c(c2)C(=O)OC32c3ccc(O)cc3Oc3cc(O)ccc32)C(=O)O)NC(=O)[C@H](CC(C)C)NC(=O)[C@H](CCCNC(=N)N)NC(=O)[C@H](Cc2c[nH]c3ccccc23)NC(=O)[C@H](C(C)C)NC(=O)[C@H](CCCNC(=N)N)NC(=O)[C@H](CC(=O)O)NC(=O)[C@@H]2CCCN2C(=O)[C@H](CCCNC(=N)N)NC(=O)CNC(=O)[C@H](C(C)C)NC(=O)[C@@H]2CCCN2C(=O)[C@H](CC(C)C)NC1=O [PTβR2I, ECGLLPVGRPDRVWRLCK-FITC] (H-ECGLLPVGRPDRVWRLCK(FITC)-OH; disulfide 2-17; N-terminus and C-terminus assumed)","proliferation (dsDNA, day 3)",HAECs [1],Significantly improved proliferation
same,"phosphorylation of Smad2/3, PTβR2I with TGFβ1 vs TGFβ1 alone",TGFβ1/p-Smad2/3 pathway; high glucose,no substantial difference
same,α-SMA+ myofibroblast formation in presence of TGFβ1,TGFβ1/p-Smad2/3 pathway; high glucose,regardless of the addition of PTβR2I
same,expression of downstream marker α-SMA,"TGFβ1/p-Smad2/3 pathway; high glucose, TGFβ1",did not alter
same,TGFβ1/p-Smad2/3 pathway,TGFβ1/p-Smad2/3 pathway; normal glucose,apparently inhibited
same,cell viability,HDF,no decrease in viability
same,IL6 mRNA expression,[2],significantly reduced
same,PDGFBB gene expression,[2],significantly enhanced
same,HGF gene expression,HAECs [3],significantly enhanced
same,VEGFA gene expression,HAECs [3],significantly enhanced
same,IGF1 expression,HDFs [4],significantly upregulated
same,IL1B mRNA expression,HDFs [4],significantly reduced
same,IL6 mRNA expression,HDFs [4],significantly reduced
same,TNFA mRNA expression,HDFs [4],significantly reduced
same,release profile from wound dressing,[5],"initial burst release was observed on the first day, followed by a slower and sustained release until day 21"
same,cell viability,[6],no decrease in viability
same,migration,HDFs [7],significantly higher number of cells had migrated
same,p-p38 expression,"TGFβ1/p38 pathway; high glucose, with TGFβ1",significantly downregulated
same,p-p38,TGFβ1/p38 pathway; normal glucose,did not downregulate
same,migration,HAECs [8],significantly higher number of cells had migrated
